Test results: paper PMC3799893 (Recent results in cancer research. Fortschritte der …, 2013)

Target: MC1R on B16/F10 murine melanoma cells (Mus musculus, UniProt Q01727)
Assay: In vitro competitive binding assay

Sequence of MC1R on B16/F10 murine melanoma cells (Q01727 whole entry): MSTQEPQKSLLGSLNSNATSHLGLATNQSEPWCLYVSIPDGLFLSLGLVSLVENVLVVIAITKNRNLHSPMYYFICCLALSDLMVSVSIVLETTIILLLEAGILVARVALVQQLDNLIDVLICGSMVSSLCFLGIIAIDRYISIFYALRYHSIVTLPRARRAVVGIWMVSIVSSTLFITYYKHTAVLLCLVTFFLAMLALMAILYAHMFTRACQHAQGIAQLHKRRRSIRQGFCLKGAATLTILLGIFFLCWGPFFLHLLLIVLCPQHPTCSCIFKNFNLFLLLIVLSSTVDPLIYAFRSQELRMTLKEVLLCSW

IC50: 1.8 ± 0.3 nM
SMILES: CSCC[C@H](NC(=O)[C@H](CO)NC(=O)[C@H](Cc1ccc(O)cc1)NC(=O)[C@H](CO)NC(=O)CN1CCN(CC(=O)O)CCN(CC(=O)O)CCN(CC(=O)O)CC1)C(=O)N[C@@H](CCC(=O)O)C(=O)N[C@@H](Cc1c[nH]cn1)C(=O)N[C@@H](Cc1ccccc1)C(=O)N[C@@H](CCCNC(=N)N)C(=O)N[C@@H](Cc1c[nH]c2ccccc12)C(=O)NCC(=O)N[C@@H](CCCCN)C(=O)N1CCC[C@H]1C(=O)N[C@H](C(N)=O)C(C)C [DOTA-a-MSH]
